Values after ≈ are worked out from the molar mass of the structure shown.
Legend:
Piricularia oryzae = assay: microbe, parasite or virus in culture; assay type: cell-based; conditions: read-out: Minimum inhibitory concentration
Alternaria kikuchiana = assay: Minimum inhibitory concentration; assay type: cell-based; conditions: PS: potato-sucrose agar, Na salt
Stability = conditions: Na salt
[1] = Toxicity (LD50), mice, orally; conditions: mouse, in vivo, po
Bacillus subtilis = assay: Minimum inhibitory concentration; conditions: read-out: Minimum inhibitory concentration
Bacillus circulans = assay: Minimum inhibitory concentration; conditions: Paenibacillus illinoisensis, read-out: Minimum inhibitory concentration
Bacillus megaterium = assay: Minimum inhibitory concentration; conditions: Priestia megaterium, read-out: Minimum inhibitory concentration
Staphylococcus aureus = assay: Minimum inhibitory concentration; conditions: read-out: Minimum inhibitory concentration
[2] = test system: Staphylococcus epidermidis; assay: Minimum inhibitory concentration; conditions: read-out: Minimum inhibitory concentration
Micrococcus flavus = assay: Minimum inhibitory concentration; conditions: read-out: Minimum inhibitory concentration
Micrococcus luteus = assay: Minimum inhibitory concentration; conditions: read-out: Minimum inhibitory concentration
Excerpt: (§1) In the Table, N indicates Nutrient agar medium, GN Glycerine nutrient medium and PS Potato-sucrose agar medium.

Mycobacterium smegmatis = assay: Minimum inhibitory concentration; conditions: Mycolicibacterium smegmatis, read-out: Minimum inhibitory concentration
Excerpt: as §1
GN: 4% glycerol nutrient agar

Mycobacterium phlei = assay: Minimum inhibitory concentration; conditions: Mycolicibacterium phlei, read-out: Minimum inhibitory concentration
Excerpt: as §1
GN: 4% glycerol nutrient agar

Mycobacterium avium = assay: Minimum inhibitory concentration; conditions: read-out: Minimum inhibitory concentration
Excerpt: as §1
GN: 4% glycerol nutrient agar

Escherichia coli = assay: Minimum inhibitory concentration; conditions: read-out: Minimum inhibitory concentration
Klebsiella pneumoniae = assay: Minimum inhibitory concentration; conditions: read-out: Minimum inhibitory concentration
Proteus vulgaris = assay: Minimum inhibitory concentration; conditions: read-out: Minimum inhibitory concentration
Psendomonas aeruginosa = assay: Minimum inhibitory concentration; conditions: read-out: Minimum inhibitory concentration

CCC(C(=O)O)C1CCC(C)C(C(C)C(O)C(C)C(=O)C(CC)C2OC3(C=CCC4(CCC(C)(C5CCC(O)(CC)C(C)O5)O4)O3)C(C)CC2C)O1 (stereo not shown) [SY-1 substance]
MIC (Piricularia oryzae): > 100 µg/mL | MIC (Alternaria kikuchiana): > 100 µg/mL | Stability (Stability; pH 7-9): stable in pH 7-9 | Stability (Stability; pH lower than 6): unstable in pH lower than 6 | Solubility in organic solvents (Solubility; alcohols, acetates, chloroform, ether, carbon tetrachloride, benzene and n-hexane, Na salt): soluble | Solubility in various organic solvents (Solubility; general statement for isolation by solvent extraction): soluble in various organic solvents | Solubility in water (Solubility; water, Na salt): insoluble in water | LD50 [1]: 51 mg/kg | MIC (Bacillus subtilis): 100 µg/mL (≈ 136 µM) | MIC (Bacillus circulans): 12.5 µg/mL (≈ 17 µM) | MIC (Bacillus megaterium): 50 µg/mL (≈ 68 µM) | MIC (Staphylococcus aureus): 100 µg/mL (≈ 136 µM) | MIC [2]: 50 µg/mL (≈ 68 µM) | MIC (Micrococcus flavus): 100 µg/mL (≈ 136 µM) | MIC (Micrococcus luteus): 100 µg/mL (≈ 136 µM) | MIC (Mycobacterium smegmatis): > 100 µg/mL | MIC (Mycobacterium phlei): > 100 µg/mL | MIC (Mycobacterium avium): > 100 µg/mL | MIC (Escherichia coli): > 100 µg/mL | MIC (Klebsiella pneumoniae): > 100 µg/mL | MIC (Proteus vulgaris): > 100 µg/mL | MIC (Psendomonas aeruginosa): > 100 µg/mL

Source: US4138496A, “SY-1 substance” (Kaken Chemical Co., Ltd., priority 1977, dated 1979)
